The values below come from PubChem BioAssay (NCI).

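Values below derive from 48-hour exposures of cells grown in 96-well plates, with endpoints linearly interpolated between the two concentrations bracketing the appropriate inhibition level. Definition used: TGI = concentration required for complete inhibition of growth.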

Common to all, as to assay: NCI tumour cell line growth inhibition, 48 h
The test system of experiment [1] is HCT-15 colon.
Experiment [2] deals with NCI/ADR-RES ovarian.
The subject of experiment [3] is K-562 leukemia.
Experiment [4] has as its system DU-145 prostate.
The test system of experiment [5] is OVCAR-4 ovarian.
In experiment [6] the test system is PC-3 prostate.
The subject of experiment [7] is OVCAR-8 ovarian.
Experiment [8] concerns KM12 colon.
In experiment [9] the test system is A498 renal.

Consider `C[C@@H]1C(=O)CC2(O)[C@@]13C[C@@H](OC(=O)[C@@H]3O)[C@@H](C)[C@@]21COC1=O` (some centres undefined), for which the TGI in experiment [1], in experiment [2], in experiment [3], in experiment [4], in experiment [5] and in experiment [6] was greater than 100 µM in each case. Further, the TGI in [7] and in experiment [8] was greater than 100 µM in each case.
For the molecule `N/C(CSCCSC/C(N)=N/O)=N\O`, the TGI in [1], in experiment [2], in experiment [3], in experiment [4], in [5] and in experiment [6] was greater than 100 µM throughout. In addition, the TGI in experiment [8] was greater than 100 µM.
`CN1c2ccccc2C(=O)NC12CCN(CC1COc3ccccc3O1)CC2` (centres undefined): the TGI in experiment [2], in [3], in [4], in [5], in experiment [7] and in experiment [8] was greater than 100 µM throughout. Moreover, the TGI in experiment [9] was 98.4 µM.
Take `Brc1ccc2c(c1)-c1nc3c(cc1CC2)CCc1ccc(Br)cc1-3`: the TGI in [1], in [2], in experiment [3], in [5], in [6] and in experiment [7] was greater than 100 µM in each case. The TGI in [8] and in [9] was greater than 100 µM in each case.
For `COC(=O)C(CCCCNC(=O)CNC(=O)OCc1ccccc1)NC(=O)C(CCCCNC(=O)CNC(=O)OCc1ccccc1)NC(=O)OCc1ccccc1` (centres undefined), the TGI in experiment [1] was greater than 100 µM; in experiment [3] it was greater than 100 µM; in experiment [4] it was greater than 100 µM; in [5], 89.9 µM; in [6], greater than 100 µM; in [7], greater than 100 µM. The molecule further gave a TGI in experiment [9] greater than 100 µM.
On to `Cc1ncc([N+](=O)[O-])n1CCNC(=O)CCCCn1ccnc1[N+](=O)[O-]`, for which the TGI in [1], in [2], in [3], in experiment [6], in experiment [7] and in [8] was greater than 100 µM in each case. For the same molecule, in experiment [9], the TGI is greater than 100 µM.
For `CC1=C(C(=O)NNC(=O)CC#N)CC(C(=O)NNC(=O)CC#N)=C(C)N1`, the TGI in [1], in experiment [2], in experiment [4], in [5], in experiment [7] and in experiment [8] was greater than 100 µM each time. The molecule also displayed a TGI in experiment [9] greater than 100 µM.
For `CCN(CC)C(=S)SS(=O)(=O)c1ccc(C)cc1`, the TGI in experiment [1] is greater than 100 µM; in experiment [2], greater than 100 µM; in [3] it was greater than 100 µM; in experiment [4], greater than 100 µM; in experiment [5] it was greater than 100 µM; in [7], 40.2 µM. The results for the TGI in experiment [8] and in experiment [9] were 30.6 µM and greater than 100 µM, respectively.
Take `NS(=O)(=O)c1nnc(NSc2ccc([N+](=O)[O-])cc2)s1`: the TGI in [1], in experiment [2], in experiment [3], in experiment [4], in experiment [5] and in [7] was greater than 100 µM throughout. In experiment [9], this molecule returned a TGI greater than 100 µM.
With `COC(=O)/C=C\S/C(=C(/c1ccccc1)n1ccc(C(=O)OC)n1)c1ccccc1`, the TGI in [1] is greater than 100 µM; in experiment [2] it was greater than 100 µM; in experiment [3], greater than 100 µM; in experiment [5], greater than 100 µM; in [6] it was 49.7 µM; in experiment [7], greater than 100 µM. This molecule returned a TGI in experiment [8] greater than 100 µM.
For `Cc1ccc(C(=O)c2[nH]c(Nc3cc(C)ccn3)c(C(=S)Nc3ccccc3)c2N)cc1`, the TGI in experiment [1], in experiment [2], in experiment [3], in [4], in experiment [5] and in [7] was greater than 100 µM throughout. Further, the TGI in [8] and in [9] was greater than 100 µM throughout.
For `NC(=S)N=Nc1c(O)cc(Nc2ccc(Cl)cc2Cl)c2ccccc12`, the TGI was greater than 100 µM in experiment [1]; greater than 100 µM in experiment [2]; greater than 100 µM in experiment [4]; greater than 100 µM in experiment [5]; 93.9 µM in experiment [7]; greater than 100 µM in [8]. Further, the TGI in experiment [9] was greater than 100 µM.
Take `O=c1c(Cc2ccccc2)c(-c2ccccc2)[nH]n1C1=NCCN1`: the TGI in experiment [1], in experiment [2], in experiment [3], in experiment [5], in experiment [6] and in experiment [7] was greater than 100 µM each time. Moreover, the TGI in experiment [8] and in [9] was greater than 100 µM throughout.
Regarding `CCCC[C@@H]1CCN2C[C@@H](O)[C@@H](O)[C@H]2[C@@H]1O`, the TGI in experiment [1], in [2], in experiment [3], in experiment [5], in experiment [6] and in experiment [7] was greater than 100 µM each time. The TGI in experiment [8] and in experiment [9] was greater than 100 µM in each case.
